Data: patent US11286263B2, “Macrocyclic fluorine substituted indole derivatives” (The Broad Institute, Inc., priority 2017, dated 2022)
Where two headings read alike, the source gives them in different places.

Assays:
[1] = molecular target: BCL-XL (Homo sapiens (Human), UniProt Q07817); experiment: Protein-protein interaction assay BCL-XL/Bad BH3 peptide (BCL-XL assay), TR-FRET; type: binding; details: median
Procedure: Assay 2 Protein-Protein Interaction Assay: BCL-XL/Bad BH3 Peptide (BCL-XL Assay)
The dose-dependent inhibition by the compounds described in this invention of the interaction between BCL-XL and the BH3 domain of Bad (both human) was determined using a steady state binding competition assay with time-resolved fluorescence energy transfer (TR-FRET) readout. For that purpose BCL-XL (amino acids 1-212, C-terminal fused to a hexahistidine (6× His) tag (SEQ ID 3) and a synthetic Bad BH3-derived peptide of sequence Biotin-PEG2-PEG2-NLWAAQRYGRELRR-Nle-SDEFVDSFKK-amide (SEQ ID 4) served as protein receptor and tracer ligand respectively. The recombinant BCL-XL protein (expressed in Ecol) was purchased from BPS Bioscience (San Diego, Calif., USA). The Bad BH3-derived peptide can be obtained from e.g. Biosyntan (Berlin, Germany).
In the assay 11 different concentrations of each compound (0.1 nM, 0.33 nM, 1.1 nM, 3.8 nM, 13 nM, 44 nM, 0.15 μM, 0.51 μM, 1.7 μM, 5.9 μM and 20 μM) were typically measured as duplicates in the same microtiter plate. For that, 100-fold concentrated DMSO solutions were prepared by serial dilutions (1:3.4) of a 2 mM stock solution in a clear, 384-well microtiter plate (Greiner Bio-One, Frickenhausen, Germany). From there, 50 nl were transferred in a dark test plate (Greiner Bio-One, Frickenhausen, Germany). The assay was initiated by addition of 2 μl of a 2,5-fold concentrated His-BCL-XL solution (usually for a 1 nM end concentration in 5 μl reaction volume) in aqueous assay buffer [50 mM Tris/HCl pH 7, 100 mM sodium chloride (NaCl), 50 μM potassium fluoride (KF), 0.005% Tween-20, 2 mM DTT, 0.1% bovine gamma globulin (BGG)] to the compounds in the assay plate. This was followed by a 10-minute incubation step at 22° C. for pre-equilibration of the putative complex between His-BCL-XL and the compounds. After that, 3 μl of a 1.67-fold concentrated solution (in assay buffer) consisting of Bad BH3-derived peptide (1 nM end concentration) and TR-FRET detection reagents [1.67 nM anti-His-Eu cryptate and 1.67 nM streptavidin-XL665 (both from Cisbio Bioassays, Codolet, France)], were added.
The mixture was incubated in the dark for one hour at 22° C. and then overnight at 4° C. The formation of BCL-XL/Bad complexes was determined by measuring the resonance energy transfer of the anti-His-Eu-cryptate antibody to the streptavidin-XL665 present in the reaction. For that purpose, the fluorescence emission at 620 nm and 665 nm after excitation at 330-350 nm was measured in a TR-FRET measuring instrument, for instance a Rubystar or a Pherastar (both from BMG Lab Technologies, Offenburg, Germany) or a Viewlux (Perkin-Elmer). The ratio of the emission at 665 nm and at 622 nm was used as indicator of the amount of BCL-XL/Bad complexes present.
The resulting data (ratio) were normalized, taking 0% inhibition as the mean value of control measurements (usually 32 data points) where all reagents were included. In this case 50 nl DMSO were used instead of compounds. A 100% inhibition corresponded to the mean value of control measurements (usually 32 data points) where all reagents except BCL-XL were included. IC50 values were determined by regression analysis based on a 4 parameter equation (minimum, maximum, IC50, Hill; Y=Max+(Min−Max)/(1+(X/IC50)^Hill) using the Screener Software (Genedata).

[2] = test system: SUDHL5; experiment: Antiproliferation assay SUDHL5 (Assay 7); type: cell-based; details: SUDHL5 cells, CellTiter-Glo, median, read-out: IC50 Antiproli SUDHL5 [M] (median)
Summary of the method: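 Luminescent ATP-based viability (CellTiter-Glo) measured after 72 h of compound treatment at 37 °C. A day 0 plate recorded at time zero served as the starting reference for proliferation.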

BCL-XL, sequence (Q07817 1-212): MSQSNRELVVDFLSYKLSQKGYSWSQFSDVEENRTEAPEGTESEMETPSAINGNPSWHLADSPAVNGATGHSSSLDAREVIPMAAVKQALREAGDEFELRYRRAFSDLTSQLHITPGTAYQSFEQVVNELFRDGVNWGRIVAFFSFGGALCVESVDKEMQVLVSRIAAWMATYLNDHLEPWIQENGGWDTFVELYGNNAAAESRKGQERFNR

Row | IC50 [1] | IC50 ([2]; 72 h) | IC50 ([2]; Homo sapiens, SU-DHL-5, 72 h) | Compound
1 | > 20 µM | 9.3e-07 M | – | Cc1c2c(nn1C)COCCCCn1c(C(=O)O)c(CCCOc3ccc(F)c4ccccc34)c3ccc(F)c-2c31 (single isomer, unassigned; enantiomer 1) [Example 16, 4-fluoro-7-{3-[(4-fluoronaphthalen-1-yl)oxy]propyl}-2,3-dimethyl-2,10,11,12,13,15-hexahydro-pyrazolo[4′,3′:9,10][1,6]oxazacycloundecino[8,7,6-hi]indole-8-carboxylic acid (enantiomer 1)]
2 | > 20 µM | – | 5.3e-07 M | Cc1c2c(nn1C)COCCCCn1c(C(=O)O)c(CCCOc3ccc(F)c4ccccc34)c3ccc(F)c-2c31 (racemic) [Example 15, (rac)-13-fluoro-1-(3-((4-fluoronaphthalen-1-yl)oxy)propyl)-11,12-dimethyl-4,5,6,7,9,11-hexahydropyrazolo[4′,3′:9,10][1]oxa[6]azacycloundecino[8,7,6-hi]indole-2-carboxylic acid]
3 | > 20 µM | – | 3.2e-06 M | Cc1cc(OCCCc2c(C(=O)O)n3c4c(c(F)ccc24)-c2c(C)nn(C)c2COCCCC3)cc(C)c1Cl (racemic) [Example 36, (rac)-1-(3-(4-chloro-3,5-dimethylphenoxy)propyl)-13-fluoro-10,12-dimethyl-4,5,6,7,9,10-hexahydropyrazolo[4′,3′:9,10][1]oxa[6]azacycloundecino[8,7,6-hi]indole-2-carboxylic acid]
4 | > 20 µM | – | 8.5e-07 M | Cc1nn(C)c2c1-c1c(F)ccc3c(CCCOc4cccc5cc(F)ccc45)c(C(=O)O)n(c13)CCCCOC2 (racemic) [Example 32, (rac)-13-fluoro-1-(3-((6-fluoronaphthalen-1-yl)oxy)propyl)-10,12-dimethyl-4,5,6,7,9,10-hexahydropyrazolo[4′,3′:9,10][1]oxa[6]azacycloundecino[8,7,6-hi]indole-2-carboxylic acid]
5 | > 20 µM | – | 2.8e-06 M | CCc1nn(C)c2c1-c1c(F)ccc3c(CCCOc4cccc5ccccc45)c(C(=O)O)n(c13)C/C=C\COC2 (racemic) [Example 11, (rac)-(Z)-12-ethyl-13-fluoro-10-methyl-1-(3-(naphthalen-1-yloxy)propyl)-4,7,9,10-tetrahydro-pyrazolo[4′,3′:9,10][1]oxa[6]azacycloundecino[8,7,6-hi]indole-2-carboxylic acid]
6 | > 20 µM | – | 5.5e-07 M | CCc1nn(C)c2c1-c1c(F)ccc3c(CCCOc4cccc5c4CCCC5)c(C(=O)O)n(c13)CCCCOC2 (racemic) [Example 44, (rac)-12-ethyl-13-fluoro-10-methyl-1-(3-((5,6,7,8-tetrahydronaphthalen-1-yl)oxy)propyl)-4,5,6,7,9,10-hexahydropyrazolo[4′,3′:9,10][1]oxa[6]azacycloundecino[8,7,6-hi]indole-2-carboxylic acid]
7 | > 20 µM | – | 1.4e-06 M | CCc1c2c(nn1C)COCCCCn1c(C(=O)O)c(CCCOc3cccc4c3CCCC4)c3ccc(F)c-2c31 (racemic) [Example 29, (rac)-12-ethyl-13-fluoro-11-methyl-1-(3-((5,6,7,8-tetrahydronaphthalen-1-yl)oxy)propyl)-4,5,6,7,9,11-hexahydropyrazolo[4′,3′:9,10][1]oxa[6]azacycloundecino[8,7,6-hi]indole-2-carboxylic acid]
8 | > 20 µM | 2.1e-06 M | – | CCc1nn(C)c2c1-c1c(F)ccc3c(CCCOc4ccc(F)c5ccccc45)c(C(=O)O)n(c13)CCCCOC2 (single isomer, unassigned; enantiomer 1) [Example 42, 3-ethyl-4-fluoro-7-{3-[(4-fluoronaphthalen-1-yl)oxy]propyl}-1-methyl-1,10,11,12,13,15-hexahydropyrazolo[4′,3′:9,10][1,6]oxazacycloundecino[8,7,6-hi]indole-8-carboxylic acid (enantiomer 1)]
9 | > 20 µM | – | 1.2e-06 M | Cc1c2c(nn1C)COCCCCn1c(C(=O)O)c(CCCOc3cccc4c3CCCC4)c3ccc(F)c-2c31 (racemic) [Example 18, (rac)-13-fluoro-11,12-dimethyl-1-(3-((5,6,7,8-tetrahydronaphthalen-1-yl)oxy)propyl)-4,5,6,7,9,11-hexahydropyrazolo[4′,3′:9,10][1]oxa[6]azacycloundecino[8,7,6-hi]indole-2-carboxylic acid]
10 | > 20 µM | – | 1.9e-06 M | CCc1nn(C)c2c1-c1c(F)ccc3c(CCCOc4cccc5c4CCC5)c(C(=O)O)n(c13)CCCCOC2 (racemic) [Example 45, (rac)-1-(3-((2,3-dihydro-1H-inden-4-yl)oxy)propyl)-12-ethyl-13-fluoro-10-methyl-4,5,6,7,9,10-hexahydropyrazolo[4′,3′:9,10][1]oxa[6]azacycloundecino[8,7,6-hi]indole-2-carboxylic acid]
11 | > 20 µM | – | 4.4e-07 M | CCc1c2c(nn1C)CN(C)CCCCn1c(C(=O)O)c(CCCOc3cccc4ccccc34)c3ccc(F)c-2c31 (racemic) [Example 54, (rac)-3-ethyl-4-fluoro-2,14-dimethyl-7-[3-(1-naphthyloxy)propyl]-10,11,12,13,14,15-hexahydro-2H-pyrazolo[3′,4′:8,9][1,6]diazacycloundecino[10,11,1-hi]indole-8-carboxylic acid]
12 | > 20 µM | – | 6e-06 M | Cc1nn(C)c2c1-c1c(F)ccc3c(CCCOc4cccc5c4CCC5)c(C(=O)O)n(c13)CCCCOC2 (racemic) [Example 35, (rac)-1-(3-((2,3-dihydro-1H-inden-4-yl)oxy)propyl)-13-fluoro-10,12-dimethyl-4,5,6,7,9,10-hexahydropyrazolo[4′,3′:9,10][1]oxa[6]azacycloundecino[8,7,6-hi]indole-2-carboxylic acid]
13 | > 20 µM | – | 1.7e-06 M | Cc1nn(C)c2c1-c1c(F)ccc3c(CCCOc4cccc5c4CCCC5)c(C(=O)O)n(c13)CCCCOC2 (racemic) [Example 34, (rac)-13-fluoro-10,12-dimethyl-1-(3-((5,6,7,8-tetrahydronaphthalen-1-yl)oxy)propyl)-4,5,6,7,9,10-hexahydropyrazolo[4′,3′:9,10][1]oxa[6]azacycloundecino[8,7,6-hi]indole-2-carboxylic acid]
14 | > 20 µM | – | 2.3e-07 M | CCc1c2c(nn1C)CN(C)CCCCn1c(C(=O)O)c(CCCOc3cccc4c3CCCC4)c3ccc(F)c-2c31 (racemic) [Example 52, (rac)-3-ethyl-4-fluoro-2,14-dimethyl-7-[3-(5,6,7,8-tetrahydronaphthalen-1-yloxy)propyl]-10,11,12,13,14,15-hexahydro-2H-pyrazolo[3′,4′:8,9][1,6]diazacycloundecino[10,11,1-hi]indole-8-carboxylic acid]
15 | > 20 µM | – | 2.6e-07 M | CCc1c2c(nn1C)CN(C)CCCCn1c(C(=O)O)c(CCCOc3cccc4c3CCC4)c3ccc(F)c-2c31 (racemic) [Example 51, (rac)-7-[3-(2,3-dihydro-1H-inden-4-yloxy)propyl]-3-ethyl-4-fluoro-2,14-dimethyl-10,11,12,13,14,15-hexahydro-2H-pyrazolo[3′,4′:8,9][1,6]diazacycloundecino[10,11,1-hi]indole-8-carboxylic acid]
16 | > 20 µM | – | 1.7e-06 M | CCc1c2c(nn1C)COC/C=C\Cn1c(C(=O)O)c(CCCOc3cccc4ccccc34)c3ccc(F)c-2c31 (racemic) [Example 5, (rac)-(11Z)-3-ethyl-4-fluoro-2-methyl-7-[3-(naphthalen-1-yloxy)propyl]-2,10,13,15-tetrahydro-pyrazolo[4′,3′:9,10][1,6]oxazacycloundecino[8,7,6-hi]indole-8-carboxylic acid]
